Measurements: the supplement of paper PMC13386468

Columns and labels:
Test in all cases: IC50 for competition of protein binding to Kinobeads
Settings in all cases: assay detail: Kinobeads competition in P. falciparum blood-stage lysate
[1] = target: UniProt C0H4L1
[2] = target: UniProt C0H530
[3] = target: UniProt C0H570
[4] = target: UniProt O96217
[5] = target: UniProt P61074
[6] = target: UniProt P61076
[7] = target: UniProt Q76NM3
[8] = target: UniProt Q8I0P6
[9] = target: UniProt Q8I1T8
[10] = target: UniProt Q8I283
[11] = target: UniProt Q8I395
Chain of UniProt Q8I395 (Q8I395 whole entry): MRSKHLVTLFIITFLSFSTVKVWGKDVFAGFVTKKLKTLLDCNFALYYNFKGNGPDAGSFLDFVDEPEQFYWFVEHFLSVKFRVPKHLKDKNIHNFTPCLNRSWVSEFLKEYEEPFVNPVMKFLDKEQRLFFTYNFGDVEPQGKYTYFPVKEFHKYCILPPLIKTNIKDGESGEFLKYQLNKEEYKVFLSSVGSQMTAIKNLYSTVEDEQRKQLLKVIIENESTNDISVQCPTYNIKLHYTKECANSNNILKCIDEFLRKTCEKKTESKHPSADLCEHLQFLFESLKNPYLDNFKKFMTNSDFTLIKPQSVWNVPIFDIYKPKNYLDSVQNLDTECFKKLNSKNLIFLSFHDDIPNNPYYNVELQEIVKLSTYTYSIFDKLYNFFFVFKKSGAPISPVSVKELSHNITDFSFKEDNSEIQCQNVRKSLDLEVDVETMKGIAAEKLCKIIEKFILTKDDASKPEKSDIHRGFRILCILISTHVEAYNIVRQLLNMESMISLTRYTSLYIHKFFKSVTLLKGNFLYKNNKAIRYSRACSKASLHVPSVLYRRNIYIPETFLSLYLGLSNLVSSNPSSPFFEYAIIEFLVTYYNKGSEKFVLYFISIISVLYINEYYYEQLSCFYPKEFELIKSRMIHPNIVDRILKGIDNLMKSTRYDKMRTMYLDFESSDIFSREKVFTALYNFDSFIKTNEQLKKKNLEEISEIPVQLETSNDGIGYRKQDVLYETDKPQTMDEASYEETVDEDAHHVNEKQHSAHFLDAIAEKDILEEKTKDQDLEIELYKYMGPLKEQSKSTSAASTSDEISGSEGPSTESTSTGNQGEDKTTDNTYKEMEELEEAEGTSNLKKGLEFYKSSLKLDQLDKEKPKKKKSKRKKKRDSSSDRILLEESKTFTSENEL

[12] = target: UniProt Q8I3K7
[13] = target: UniProt Q8I3M5
[14] = target: UniProt Q8I3R0
[15] = target: UniProt Q8I3T1
[16] = target: UniProt Q8I3U9
[17] = target: UniProt Q8I566
Chain of UniProt Q8I566 (Q8I566 whole entry): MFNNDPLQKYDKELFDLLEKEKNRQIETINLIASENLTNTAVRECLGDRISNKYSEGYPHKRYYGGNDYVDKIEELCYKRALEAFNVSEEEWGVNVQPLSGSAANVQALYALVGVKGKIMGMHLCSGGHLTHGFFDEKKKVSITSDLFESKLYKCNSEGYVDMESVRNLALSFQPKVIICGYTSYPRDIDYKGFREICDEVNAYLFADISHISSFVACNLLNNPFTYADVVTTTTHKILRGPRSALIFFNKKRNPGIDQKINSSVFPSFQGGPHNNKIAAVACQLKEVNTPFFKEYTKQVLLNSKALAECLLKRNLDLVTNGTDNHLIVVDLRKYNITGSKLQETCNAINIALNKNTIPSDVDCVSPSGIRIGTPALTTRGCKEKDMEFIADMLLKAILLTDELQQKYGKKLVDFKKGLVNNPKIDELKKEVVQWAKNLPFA

[18] = target: UniProt Q8I586
[19] = target: UniProt Q8I5C4
[20] = target: UniProt Q8I5H9
[21] = target: UniProt Q8I5T4
[22] = target: UniProt Q8IAR3
[23] = target: UniProt Q8IAU1
[24] = target: UniProt Q8IAX5
[25] = target: UniProt Q8IB66
[26] = target: UniProt Q8IBN7
[27] = target: UniProt Q8IBQ6
[28] = target: UniProt Q8IBS3
[29] = target: UniProt Q8IDG3
[30] = target: UniProt Q8IDH5
[31] = target: UniProt Q8IDZ2
[32] = target: UniProt Q8IEF5
[33] = target: UniProt Q8IEK3
[34] = target: UniProt Q8IHU0
[35] = target: UniProt Q8II13
[36] = target: UniProt Q8IIA2
[37] = target: UniProt Q8IIJ8
[38] = target: UniProt Q8IIK2
[39] = target: UniProt Q8IIM4
[40] = target: UniProt Q8IIR0
[41] = target: UniProt Q8IJ34
[42] = target: UniProt Q8IJ72
[43] = target: UniProt Q8IK92
[44] = target: UniProt Q8IKS4
[45] = target: UniProt Q8IKU0
Chain of UniProt Q8IKU0 (Q8IKU0 whole entry): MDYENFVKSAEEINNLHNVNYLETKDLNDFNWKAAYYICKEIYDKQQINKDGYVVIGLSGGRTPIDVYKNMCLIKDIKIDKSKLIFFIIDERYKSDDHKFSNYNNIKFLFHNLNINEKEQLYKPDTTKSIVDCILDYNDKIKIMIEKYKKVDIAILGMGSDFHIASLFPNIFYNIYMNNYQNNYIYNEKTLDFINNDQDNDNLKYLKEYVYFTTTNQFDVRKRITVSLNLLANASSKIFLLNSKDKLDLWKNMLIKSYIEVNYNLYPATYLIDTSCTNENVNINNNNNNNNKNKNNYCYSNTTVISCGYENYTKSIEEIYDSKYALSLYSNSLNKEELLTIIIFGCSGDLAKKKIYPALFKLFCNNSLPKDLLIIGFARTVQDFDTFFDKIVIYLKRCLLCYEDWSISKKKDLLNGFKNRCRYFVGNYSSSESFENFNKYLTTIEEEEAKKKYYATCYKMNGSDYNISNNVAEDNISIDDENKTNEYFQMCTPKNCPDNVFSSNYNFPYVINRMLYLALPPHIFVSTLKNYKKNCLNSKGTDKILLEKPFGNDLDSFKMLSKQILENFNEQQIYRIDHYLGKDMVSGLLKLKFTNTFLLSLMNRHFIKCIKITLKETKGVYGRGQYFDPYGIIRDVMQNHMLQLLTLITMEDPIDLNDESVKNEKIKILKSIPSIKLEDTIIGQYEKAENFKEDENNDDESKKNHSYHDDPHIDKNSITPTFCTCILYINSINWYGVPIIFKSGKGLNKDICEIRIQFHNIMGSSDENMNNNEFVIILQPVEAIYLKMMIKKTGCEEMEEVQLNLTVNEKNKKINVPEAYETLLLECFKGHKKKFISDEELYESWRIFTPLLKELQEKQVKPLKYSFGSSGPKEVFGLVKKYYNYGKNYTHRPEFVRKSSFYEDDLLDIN

[46] = target: UniProt Q8IL11
Chain of UniProt Q8IL11 (Q8IL11 whole entry): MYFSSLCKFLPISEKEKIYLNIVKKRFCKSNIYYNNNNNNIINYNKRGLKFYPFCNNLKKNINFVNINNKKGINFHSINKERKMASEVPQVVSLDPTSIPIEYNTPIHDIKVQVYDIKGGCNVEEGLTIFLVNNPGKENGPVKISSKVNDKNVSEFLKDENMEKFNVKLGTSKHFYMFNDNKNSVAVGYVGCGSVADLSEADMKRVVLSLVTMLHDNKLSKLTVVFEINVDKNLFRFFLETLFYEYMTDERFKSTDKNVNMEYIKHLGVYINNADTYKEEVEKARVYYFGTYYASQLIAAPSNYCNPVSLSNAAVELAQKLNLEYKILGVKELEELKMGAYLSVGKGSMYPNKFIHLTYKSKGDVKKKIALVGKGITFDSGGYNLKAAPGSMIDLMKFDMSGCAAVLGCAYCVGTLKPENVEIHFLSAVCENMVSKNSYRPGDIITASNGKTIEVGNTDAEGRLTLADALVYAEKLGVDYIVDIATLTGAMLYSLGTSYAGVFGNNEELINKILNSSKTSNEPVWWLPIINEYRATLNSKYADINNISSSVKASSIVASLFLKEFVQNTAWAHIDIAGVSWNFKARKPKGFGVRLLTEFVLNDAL

[47] = target: UniProt Q8IL57
[48] = target: UniProt Q8IL88
[49] = target: UniProt Q8ILS7
[50] = target: UniProt Q8IM71
[51] = target: UniProt Q9U0N4
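Note: native unpurified kinases from lysate captured on beads bearing immobilized kinase inhibitors, with bead-bound kinases quantified by mass spectrometry across compound doses.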

Chain of UniProt P61076 (P61076 whole entry): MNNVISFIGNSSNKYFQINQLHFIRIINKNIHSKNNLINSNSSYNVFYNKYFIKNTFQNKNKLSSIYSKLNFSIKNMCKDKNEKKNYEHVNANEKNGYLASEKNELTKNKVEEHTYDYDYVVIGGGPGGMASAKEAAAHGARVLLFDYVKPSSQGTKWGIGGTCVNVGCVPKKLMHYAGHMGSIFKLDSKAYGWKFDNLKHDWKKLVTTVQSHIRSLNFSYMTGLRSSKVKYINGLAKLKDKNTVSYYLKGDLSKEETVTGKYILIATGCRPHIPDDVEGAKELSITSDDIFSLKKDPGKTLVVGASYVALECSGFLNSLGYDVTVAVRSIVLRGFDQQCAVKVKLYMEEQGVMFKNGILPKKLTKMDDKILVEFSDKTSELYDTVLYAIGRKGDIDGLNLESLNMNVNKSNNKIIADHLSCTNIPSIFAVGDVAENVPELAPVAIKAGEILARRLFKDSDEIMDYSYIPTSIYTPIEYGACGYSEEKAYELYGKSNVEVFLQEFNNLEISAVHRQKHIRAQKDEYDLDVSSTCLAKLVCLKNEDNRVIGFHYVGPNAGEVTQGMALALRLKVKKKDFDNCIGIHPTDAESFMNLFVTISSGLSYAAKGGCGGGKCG
Chain of UniProt P61074 (P61074 whole entry): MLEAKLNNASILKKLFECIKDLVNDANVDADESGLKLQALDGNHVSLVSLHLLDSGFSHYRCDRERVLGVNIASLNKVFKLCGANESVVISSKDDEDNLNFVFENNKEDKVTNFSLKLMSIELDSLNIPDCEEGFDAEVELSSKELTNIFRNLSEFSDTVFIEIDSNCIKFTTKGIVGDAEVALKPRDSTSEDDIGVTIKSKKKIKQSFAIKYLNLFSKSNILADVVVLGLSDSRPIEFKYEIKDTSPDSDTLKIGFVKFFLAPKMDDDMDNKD
Chain of UniProt Q8I1T8 (Q8I1T8 whole entry): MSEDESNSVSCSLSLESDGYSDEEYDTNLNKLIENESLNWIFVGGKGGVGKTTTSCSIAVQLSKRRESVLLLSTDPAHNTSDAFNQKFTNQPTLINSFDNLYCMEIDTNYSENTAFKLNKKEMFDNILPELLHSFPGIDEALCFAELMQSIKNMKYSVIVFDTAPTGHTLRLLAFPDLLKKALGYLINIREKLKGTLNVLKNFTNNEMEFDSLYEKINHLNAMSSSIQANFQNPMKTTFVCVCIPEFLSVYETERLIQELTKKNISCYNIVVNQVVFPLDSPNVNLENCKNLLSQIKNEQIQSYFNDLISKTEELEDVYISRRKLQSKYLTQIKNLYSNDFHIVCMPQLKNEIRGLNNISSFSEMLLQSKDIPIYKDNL

## O=c1[nH]c2ccc(Cl)cc2c(NC2CN3CCC2CC3)c1-c1nc2ccccc2[nH]1 (stereo unspecified) [CHIR-124]
[1]
  IC50: > 20 µM
[2]
  IC50: > 20 µM
[3]
  IC50: > 20 µM
[4]
  IC50: > 20 µM
[5]
  IC50: > 20 µM
[6]
  IC50: > 20 µM
[7]
  IC50: > 20 µM
[8]
  IC50: > 20 µM
[9]
  IC50: > 20 µM
[10]
  IC50: > 20 µM
[11]
  IC50: > 20 µM
[12]
  IC50: > 20 µM
[13]
  IC50: > 20 µM
[14]
  IC50: > 20 µM
[15]
  IC50: > 20 µM
[16]
  IC50: > 20 µM
[17]
  IC50: > 20 µM
[18]
  IC50: > 20 µM
[19]
  IC50: > 20 µM
[20]
  IC50: 14 µM
[21]
  IC50: > 20 µM
[22]
  IC50: > 20 µM
[23]
  IC50: > 20 µM
[24]
  IC50: > 20 µM
[25]
  IC50: > 20 µM
[26]
  IC50: > 20 µM
[27]
  IC50: > 20 µM
[28]
  IC50: > 20 µM
[29]
  IC50: > 20 µM
[30]
  IC50: > 20 µM
[31]
  IC50: > 20 µM
[32]
  IC50: > 20 µM
[33]
  IC50: > 20 µM
[34]
  IC50: > 20 µM
[35]
  IC50: > 20 µM
[36]
  IC50: > 20 µM
[37]
  IC50: > 20 µM
[38]
  IC50: > 20 µM
[39]
  IC50: > 20 µM
[40]
  IC50: > 20 µM
[41]
  IC50: > 20 µM
[42]
  IC50: > 20 µM
[43]
  IC50: > 20 µM
[44]
  IC50: > 20 µM
[45]
  IC50: > 20 µM
[46]
  IC50: > 20 µM
[47]
  IC50: > 20 µM
[48]
  IC50: > 20 µM
[49]
  IC50: > 20 µM
[50]
  IC50: > 20 µM
[51]
  IC50: > 20 µM
